Measurements taken from patent US20240376118A1, “BI-FUNCTIONAL COMPOUNDS AND METHODS FOR TARGETED UBIQUITINATION OF ANDROGEN RECEPTOR” (MONTELINO THERAPEUTICS, INC., priority 2021, published 2024).

What follows are compounds tested on 22Rv1-Enz^R human prostate cancer cell line (assay: 22Rv1-Enz^R cell proliferation assay). Settings: 22Rv1-Enz^R cells, 6-day culture, cell media changed every 24 hours, read-out: 22Rv1-Enz^R proliferation assay GIC50 (half maximal growth inhibition constant).
Type: cell-based
Description: The human prostate cancer cell line, 22Rv1 has been reported to express a high level of AR-V7. According to one procedure, 22Rv1 is seeded at 50,000 cells/well on a 24-well plate in quadruplicate and treated with test compounds in concentrations ranging up to 20 μM for four days. Standard culture media is RPMI-1640 supplemented with 10% fetal bovine serum. The test compound initially is dissolved in DMSO at 50 mM. This stock solution is then diluted as needed for the indicated concentrations. At the end of the four-day period, cells are harvested using 1% trypsin and counted using an automated cell counter.
Cell Culture. Human CaP cell lines, LNCaP, 22Rv1, VCaP, PC3, and DU145 are obtained from the American Type Culture Collection (ATCC) and maintained in the standard culture media: RPMI-1640 supplemented with 10% fetal bovine serum (FBS). LNCaP, 22Rv1, and VCaP are androgen-responsive cell lines, while PC3 and DU145 are not. To establish SAT resistant CaP cell lines, LNCaP, 22Rv1, and VCaP are treated continuously with 10-50 μM abiraterone, apalutamide, darolutamide, or enzalutamide. After 3-6 months, stable cell lines are established and designated as LNCaP-Abi^R, LNCaP-Apa^R, LNCaP-Daro^R, LNCaP-Enz^R, VCaP-Abi^R, VCaP-Apa^R, VCaP-Daro^R, VCaP-Enz^R, 22Rv1-Abi^R, 22Rv1-Apa^R, 22Rv1-Daro^R and 22Rv1-Enz^R. Unless otherwise specified, the standard culture media for these SAT-resistant cell lines included 10 μM of their respective SAT. For the proteasome inhibitor study, the inhibitors MG132 and Epoxomicin are used. The E3 ligase inhibitors Heclin, Nutlin 3a, Thalidomide, and VH298 are used. Cell lines obtained from ATCC are confirmed by checking their morphology using optical microscopy, establishing baselines for cell proliferation, verifying species of origin using isoenzymology, and characterizing the cell's DNA fingerprint using short tandem repeat (STR) profiling. Mycoplasma contamination is also assessed using a PCR based detection system.
Selected compounds may be tested in the human prostate cancer cell line, 22Rv1-Enz^R, as described in Geun Taek Lee et al., Molecular Cancer Therapeutics, 20:490-9 (2021). These procedures are similar to that described in Experimental Example 1, above, except that the assay conditions are a 6-day culture with cell media changed every 24 hours.

IC50, < 10 µM:
O=C(COc1c(-c2csc(N3CCOCC3)n2)ccc(F)c1F)NCCCCC(=O)N1CCN(c2cc3c(cc2F)C(=O)N(C2CCC(=O)NC2=O)C3=O)CC1 (stereo not drawn) [Example 1, 2-(2,3-difluoro-6-(2-morpholinothiazol-4-yl)phenoxy)-N-(5-(4-(2-(2,6-dioxopiperidin-3-yl)-6-fluoro-1,3-dioxoisoindolin-5-yl)piperazin-1-yl)-5-oxopentyl)acetamide]
O=C(COc1c(-c2csc(N3CCOCC3)n2)ccc(F)c1F)NCCCCCCC(=O)N1CCN(c2cc3c(cc2F)C(=O)N(C2CCC(=O)NC2=O)C3=O)CC1 (stereo not drawn) [Example 2, 2-(2,3-difluoro-6-(2-morpholinothiazol-4-yl)phenoxy)-N-(7-(4-(2-(2,6-dioxopiperidin-3-yl)-6-fluoro-1,3-dioxoisoindolin-5-yl)piperazin-1-yl)-7-oxoheptyl)acetamide]
O=C(COc1c(-c2csc(N3CCOCC3)n2)ccc(F)c1F)NCCCCCCCCCCC(=O)N1CCN(c2cc3c(cc2F)C(=O)N(C2CCC(=O)NC2=O)C3=O)CC1 (stereo not drawn) [Example 3, 2-(2,3-difluoro-6-(2-morpholinothiazol-4-yl)phenoxy)-N-(11-(4-(2-(2,6-dioxopiperidin-3-yl)-6-fluoro-1,3-dioxoisoindolin-5-yl)piperazin-1-yl)-11-oxoundecyl)acetamide]
O=C1CCC(N2C(=O)c3cc(F)c(N4CCN(CC5CCN(C(=O)COc6c(-c7csc(N8CCOCC8)n7)ccc(F)c6F)CC5)CC4)cc3C2=O)C(=O)N1 (stereo not drawn) [Example 20, 5-(4-((1-(2-(2,3-difluoro-6-(2-morpholinothiazol-4-yl)phenoxy)acetyl)piperidin-4-yl)methyl)piperazin-1-yl)-2-(2,6-dioxopiperidin-3-yl)-6-fluoroisoindoline-1,3-dione]
O=C(COc1c(-c2csc(N3CCOCC3)n2)ccc(F)c1F)NCCCCCCCCCCNc1cc2c(cc1F)C(=O)N(C1CCC(=O)NC1=O)C2=O (stereo not drawn) [Example 25, 2-(2,3-difluoro-6-(2-morpholinothiazol-4-yl)phenoxy)-N-(10-((2-(2,6-dioxopiperidin-3-yl)-6-fluoro-1,3-dioxoisoindolin-5-yl)amino)decyl)acetamide]
O=C1CCC(N2C(=O)c3cc(F)c(NCCCCOCCOCCOCCOc4c(-c5csc(N6CCOCC6)n5)ccc(F)c4F)cc3C2=O)C(=O)N1 (stereo not drawn) [Example 32, 5-((4-(2-(2-(2-(2,3-difluoro-6-(2-morpholinothiazol-4-yl)phenoxy)ethoxy)ethoxy)ethoxy)butyl)amino)-2-(2,6-dioxopiperidin-3-yl)-6-fluoroisoindoline-1,3-dione]
